PubChem BioAssay AID1963854 (Molecular Pharmacology Branch, DTP, NCI, 2024)
Several values for one entry are separate records, joined by “and”; a condition that tells them apart may be missing. Equal entries are not always repeated.

System: 186277-243-T-J2-PDC complex spheroid viability
Test: Anticancer human tumor 186277-243-T-J2-PDC patient-derived colon adenocarcinoma cell line growth inhibition [POLQ]
Details: for viability, T/C: stronger effect = lower value; for IC50: curve of compound
Method: Multicellular complex tumor spheroid response to Polymerase (POL) inhibitors (novobiocin, ART-558, RP6685) in combination with a variety of drugs and investigational agents in selected tumor cell lines
The POL inhibitors (novobiocin, ART-558, and RP6685) were evaluated both individually and in combination with standard of care and investigational anticancer small molecules within a complex spheroid model of solid tumors. . Complex spheroids include a stromal component modeled by human endothelial cells (HUVEC) and fibroblasts modeled by human mesenchymal stem cells (MSCs). The concentration ranges selected for each drug and investigational agent were based upon clinically achievable concentrations if the clinical Cmax of the agent was known.
Compounds. The drugs and investigational agents: novobiocin (NSC847541), ART-558 (NSC835418), RP-6685 (NSC848927), peposertib (NSC802822), ceralasertib (NSC780249), elimusertib (NSC800525), camonsertib (NSC841442), AZD-1390 (NSC803789), olaparib (NSC753686), talazoparib (NSC767125), rucaparib (NSC756644), sotorasib (NSC818433), MRTX-1133 (NSC836407), SN-38 (NSC673596), topotecan (NSC609699), epotoside (NSC141540), doxorubicin (NSC123127), gemcitabine (NSC613327), 5-fluorouracil (NSC19893), paclitaxel (NSC125973), vemurafenib (NSC761431), MSA-2 (NSC828583), SN-011 (NSC837082), adavosertib (NSC754352), prexasertib (NSC758257), carboplatin (NSC241240) and oxaliplatin (NSC266046), were obtained from the National Cancer Institute (NCI) Developmental Therapeutics Program Chemical Repository (21). The FDA-approved anticancer drug set is available from the Developmental Therapeutics Program at https://dtp.cancer.gov/organization/dscb/obtaining/. […] The stock solutions were prepared in dimethyl sulfoxide (DMSO, Sigma-Aldrich, St. Louis, MO, cat. D2650), except for the platinum compounds which were prepared in saline (Quality Biological, Gaithersburg, MD, cat. 114-055-101), at 800-fold the tested concentration and stored at -70 degrees C prior to their use. All drugs and investigational agents were tested over a range starting from a high concentration at or near the clinical Cmax and decreasing in half-log increments. If the clinical Cmax for an agent had not been determined, the highest concentration tested was 10 microM, except for SN-38, which was tested at a high concentration of 1 microM.
Cell Culture. All cells were maintained in an incubator at 37 degrees C and 5% CO2 with 95% humidity. The PDC lines were cultured according to standard operating procedures established by the NCI PDMR (https://pdmr.cancer.gov). Table 3 of the manuscript, lists the cell lines along with the number of the three cell types plated to form the mct-spheroids and media for tumor cell growth. After thawing, all PDC lines, except 997537-175-T-J1-PDC and 415267-285-R-J2-PDC, were cultured in Matrigel-coated flasks prepared with a working solution of 1X Ham's F-12 nutrient mix, without supplementation (Thermo Fisher Scientific, cat. 11765054), 100 U/mL penicillin-streptomycin (Thermo Fisher Scientific, cat. 15140122), and 2.5% Matrigel (Corning Inc., Corning, NY, cat. 354248) for the first three passages. The two PDC lines 997537-175-T-J1-PDC and 415267-285-R-J2-PDC were cultured on uncoated flasks. The 857933-349-R-J2-PDC line was cultured in 6C/Colon 1B media containing advanced DMEM/F-12 (Thermo Fisher Scientific, cat. 12634028), 10 mM HEPES (Thermo Fisher Scientific, cat. 15630080), 1X GlutaMAX supplement (Thermo Fisher Scientific, cat. 35050061), 0.1 mg/mL primocin (InvivoGen, San Diego, CA, cat. ant-pm-2), 10% defined fetal bovine serum, heat inactivated (HyClone Laboratories Inc., Logan, UT, cat. SH30070.03HI), 50% L-WRN conditioned media (ATCC, cat. CRL-3276), 1.25 mM N-Acetyl-L-cysteine (Sigma-Aldrich, cat. A9165), 10 mM nicotinamide (Sigma-Aldrich, cat. N0636), 1X B-27 supplement (Thermo Fisher Scientific, cat. 17504044), 1X N-2 supplement (Thermo Fisher Scientific, cat. […]
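Note: spheroids exposed to compounds for seven days.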
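Throughout, for viability, T/C: 100% = DMSO vehicle control viability.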

SMILES	viability, T/C (compound 0.0316 µM)	viability, T/C (compound 0.1 µM)	viability, T/C (compound 1 µM)	viability, T/C (compound 3.16 µM)	viability, T/C (compound 10 µM)	IC50	viability, T/C (compound 0.316 µM)	viability, T/C (compound 0.00316 µM)	viability, T/C (compound 0.01 µM)
COc1cccc2c1C(=O)c1c(O)c3c(c(O)c1C2=O)CC(O)(C(=O)CO)CC3OC1CC(N)C(O)C(C)O1 (centres undefined)	109% and 154% and 91.8%	56.6% and 106% and 42.8%	0.64% and 1.27% and 0.32%	0.26% and 1.06% and 0.23%	0.49% and 1.07% and 0.37%	0.118 µM and 0.25 µM and 0.0845 µM	–	–	–
O=C(Nc1ccc(O)c(NS(=O)(=O)c2ccc(F)cc2)c1)c1ccc(-c2ccccc2)cc1	108% and 109% and 99.2%	95.9% and 81.3% and 96.8%	93.1% and 95.4% and 95.7%	114% and 98.8% and 102%	98% and 116% and 94.2%	> 10 µM	103% and 90% and 102%	–	–
CC1COCCN1c1cc(C2(S(C)(=N)=O)CC2)nc(-c2ccnc3[nH]ccc23)n1 (centres undefined)	97.6% and 101% and 100%	110% and 107% and 101%	38% and 82.3% and 42.9%	7.52% and 14% and 6.48%	5.94% and 9.28% and 6.22%	0.805 µM and 1.72 µM and 0.876 µM	102% and 106% and 112%	–	–
C=CCn1c(=O)c2cnc(Nc3ccc(N4CCN(C)CC4)cc3)nc2n1-c1cccc(C(C)(C)O)n1	97.8% and 104% and 94.2%	93.9% and 91.6% and 113%	7.74% and 14.5% and 12.9%	–	–	0.188 µM and 0.211 µM and 0.224 µM	13.8% and 27.6% and 28.5%	95.7% and 86.8% and 99.2%	96% and 97.5% and 95.8%
COc1cc(C2c3cc4c(cc3C(OC3OC5COC(C)OC5C(O)C3O)C3COC(=O)C23)OCO4)cc(OC)c1O (centres undefined)	99.9% and 94.4% and 99.1%	111% and 100% and 118%	48.1% and 89.2% and 45.2%	30.1% and 59.8% and 27.6%	14.3% and 30.9% and 11.9%	0.989 µM and 4.47 µM and 0.81 µM	82.8% and 130% and 71.7%	–	–
